# Legend:
# Assay type in all cases: functional
# [1] = tested on: Candida albicans; assay: Antifungal activity was determined against Candida albicans
# [2] = tested on: Enterococcus faecalis; assay: Antimicrobial activity was determined against vancomycin-susceptible Enterococcus faecalis (VSEF 29212)
# [3] = tested on: Streptococcus pneumoniae; assay: Antimicrobial activity was determined against penicillin-susceptible Streptococcus pneumoniae (PSSP 49619)
# [4] = tested on: Escherichia coli; assay: Binding to the sequence 5'-ACAATTAA-3', a site proximal to the […] RNA polymerase subunit binding site within the Escherichia coli Trc promoter.; conditions: read-out: Kd app
# [5] = tested on: Enterococcus faecalis; assay: Antimicrobial activity was determined against vancomycin-resistant Enterococcus faecalis (VREF 51559)
# [6] = tested on: Staphylococcus aureus; assay: Antimicrobial activity was determined against methicillin-resistant Staphylococcus aureus (MRSA 27660)
# [7] = tested on: Staphylococcus aureus; assay: Antimicrobial activity was determined against methicillin-susceptible S. aureus(MSSA 29213)
# [8] = tested on: Streptococcus pneumoniae; assay: Antimicrobial activity was determined against penicillin-resistant Streptococcus pneumoniae (PRSP 51422)
Compound,MIC [1],MIC [2],MIC [3],Kd [4],MIC [5],MIC [6],MIC [7],MIC [8]
CN(C)CCCCNC(=O)c1cc(NC(=O)c2cc(NC(=O)c3cc(NC(=O)c4nsc(NCCCN)c4Cl)cn3C)cn2C)cn1C,0.25 µg/mL,0.125 µg/mL,0.064 µg/mL,0.53 nM,0.25 µg/mL,0.25 µg/mL,0.5 µg/mL,0.125 µg/mL
Cn1cc(NC(=O)c2cc(NC(=O)c3cc(NC(=O)c4nsc(NCCN5CCOCC5)c4Cl)cn3C)cn2C)cc1C(=O)NCCCO,> 32 µg/mL,32 µg/mL,32 µg/mL,32.1 nM,> 32 µg/mL,,> 32 µg/mL,1 µg/mL
CN(C)CCCNC(=O)c1cc(NC(=O)c2cc(NC(=O)c3cc(NC(=O)c4nsc(NCCCCCCCN)c4Cl)cn3C)cn2C)cn1C,> 32 µg/mL,8 µg/mL,32 µg/mL,1.3 nM,1 µg/mL,32 µg/mL,32 µg/mL,16 µg/mL
Cn1cc(NC(=O)c2cc(NC(=O)c3cc(NC(=O)c4nsc(NCCN5CCOCC5)c4Cl)cn3C)cn2C)cc1C(=O)NCCc1ccncc1,> 32 µg/mL,0.062 µg/mL,0.062 µg/mL,4.35 nM,0.25 µg/mL,0.5 µg/mL,0.125 µg/mL,0.5 µg/mL
CN(C)CCCNC(=O)c1cc(NC(=O)c2cc(NC(=O)c3cc(NC(=O)c4nsc(NCCCN)c4Cl)cn3C)cn2C)cn1C,8 µg/mL,1 µg/mL,0.5 µg/mL,1.74 nM,2 µg/mL,1 µg/mL,2 µg/mL,4 µg/mL
Cn1cc(NC(=O)c2cc(NC(=O)c3cc(NC(=O)c4nsc(NCCc5ccccn5)c4Cl)cn3C)cn2C)cc1C(=O)NCCN1CCOCC1,> 32 µg/mL,0.5 µg/mL,0.125 µg/mL,0.83 nM,4 µg/mL,2 µg/mL,1 µg/mL,0.5 µg/mL
CCOCCCNC(=O)c1cc(NC(=O)c2cc(NC(=O)c3cc(NC(=O)c4nsc(NCCN5CCOCC5)c4Cl)cn3C)cn2C)cn1C,> 32 µg/mL,16 µg/mL,0.5 µg/mL,83.3 nM,4 µg/mL,16 µg/mL,16 µg/mL,1 µg/mL
Cn1cc(NC(=O)c2cc(NC(=O)c3cc(NC(=O)c4nsc(NCCCNC5CCCCC5)c4Cl)cn3C)cn2C)cc1C(=O)NCCCNC1CCCCC1,16 µg/mL,2 µg/mL,2 µg/mL,1.19 nM,2 µg/mL,1 µg/mL,1 µg/mL,0.5 µg/mL
Cn1cc(NC(=O)c2cc(NC(=O)c3cc(NC(=O)c4nsc(NCCc5ccncc5)c4Cl)cn3C)cn2C)cc1C(=O)NCCN1CCOCC1,> 32 µg/mL,0.25 µg/mL,0.062 µg/mL,0.29 nM,2 µg/mL,1 µg/mL,1 µg/mL,0.25 µg/mL
Cn1cc(NC(=O)c2cc(NC(=O)c3cc(NC(=O)c4nsc(NCCCCN)c4Cl)cn3C)cn2C)cc1C(=O)NCCN1CCOCC1,8 µg/mL,4 µg/mL,0.5 µg/mL,0.37 nM,16 µg/mL,4 µg/mL,4 µg/mL,0.5 µg/mL

# From ChEMBL document CHEMBL1135329, “DNA binding ligands with excellent antibiotic potency against drug-resistant gram-positive bacteria” (Bioorg Med Chem Lett, 2002)
